From PubChem BioAssay (NCI) come the findings set out here.

Some test systems named below: NCI-H23 lung; PC-3 prostate; LOX IMVI melanoma; SN12C renal; CAKI-1 renal; T-47D breast; COLO 205 colon; NCI/ADR-RES ovarian; A549 NSCLC; SR leukemia.
Holding throughout (experiment): NCI anticancer screen, dose series, 48 h

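Exposure lasted 48 hours, with cells grown in 96-well plates and compounds tested at five concentrations. GI50: concentration for 50% inhibition of growth. At the TGI there is no net growth.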 A value given as a limit tells only on which side of the number the result lay.

Take `Nc1ccccc1C#C/C=C\C#Cc1ccccc1C#CCO`: the GI50 was 1.83 µM in the assay with NCI-H23 lung; 27.5 µM with PC-3 prostate; 1.36 µM in the assay on LOX IMVI melanoma; 9.46 µM in the assay on SN12C renal; 4.1 µM in the assay with CAKI-1 renal; 16.9 µM in the assay on T-47D breast. Further, the GI50 in the assay with COLO 205 colon is 11.8 µM; in the assay with NCI/ADR-RES ovarian, 6.17 µM; in the assay on A549 NSCLC it was 11.2 µM; in the assay on SR leukemia, 0.405 µM. The TGI was 6.9 µM with NCI-H23 lung; over 50 µM with PC-3 prostate; 8.97 µM with LOX IMVI melanoma; 27.4 µM in the assay with SN12C renal; 18 µM in the assay with CAKI-1 renal; over 50 µM in the assay on T-47D breast. The TGI with COLO 205 colon is 31.6 µM; in the assay with NCI/ADR-RES ovarian, 21.4 µM; in the assay on A549 NSCLC, over 50 µM; in the assay on SR leukemia, over 50 µM.
Consider `C/C(=N\NC(=O)c1ccncc1)c1sc(-n2nc(-c3ccccc3)cc2-c2ccccc2)nc1C`, for which the TGI in the assay on NCI-H23 lung was over 31.6 µM; with PC-3 prostate, over 31.6 µM; with LOX IMVI melanoma it was over 100 µM; in the assay on SN12C renal, over 100 µM; with CAKI-1 renal, over 100 µM; with T-47D breast, over 31.6 µM. Further, the TGI with COLO 205 colon was over 100 µM; in the assay with NCI/ADR-RES ovarian, over 100 µM; in the assay with A549 NSCLC, over 31.6 µM; with SR leukemia it was over 31.6 µM.
On to `CC1=CC(=O)N(c2cccc3c(N4C(=O)C=C(C)C4=O)cccc23)C1=O`, for which the GI50 is 15.3 µM in the assay with NCI-H23 lung; 7.97 µM in the assay with PC-3 prostate; 1.8 µM in the assay on LOX IMVI melanoma; 8.62 µM in the assay with SN12C renal; 3.61 µM in the assay on CAKI-1 renal; 2.07 µM in the assay with T-47D breast. The GI50 is 0.988 µM in the assay with COLO 205 colon, 10.4 µM in the assay with NCI/ADR-RES ovarian, 32.5 µM in the assay with A549 NSCLC and 1.56 µM with SR leukemia. Also, the TGI in the assay with NCI-H23 lung is 39.7 µM; in the assay on PC-3 prostate it was 22.7 µM; in the assay with LOX IMVI melanoma it was 5.56 µM; in the assay on SN12C renal it was 26.5 µM; with CAKI-1 renal, 13.8 µM; with T-47D breast it was 9.12 µM. The TGI was 2.65 µM in the assay on COLO 205 colon, over 89 µM in the assay with NCI/ADR-RES ovarian, over 100 µM in the assay with A549 NSCLC and 5.22 µM with SR leukemia.
Consider `CN1CCN(CCCNC(=O)c2c3c(n4ccccc24)C(=O)c2ncccc2C3=O)CC1`, for which the GI50 in the assay on NCI-H23 lung is 0.674 µM; in the assay with PC-3 prostate it was 1.37 µM; with LOX IMVI melanoma, 0.715 µM; in the assay with SN12C renal it was 1.42 µM; in the assay with CAKI-1 renal, 6.76 µM; in the assay on T-47D breast, 1.88 µM. Moreover, the GI50 is 0.563 µM in the assay with COLO 205 colon, 12 µM in the assay on NCI/ADR-RES ovarian, 1.26 µM with A549 NSCLC and 0.529 µM with SR leukemia. Moreover, the TGI in the assay on NCI-H23 lung came to 3.08 µM; in the assay with PC-3 prostate it was 9 µM; with LOX IMVI melanoma, 3.36 µM; in the assay with SN12C renal, 3.61 µM; in the assay on CAKI-1 renal it was 46.3 µM; with T-47D breast, 5.28 µM. For the same compound, the TGI in the assay with COLO 205 colon is 1.67 µM; in the assay with NCI/ADR-RES ovarian, 64.6 µM; in the assay on A549 NSCLC, 5.48 µM; with SR leukemia, over 26.2 µM.
`CN(C)c1ccc(/C=C(\C#N)c2cc3ccccc3[nH]2)cc1`: the GI50 in the assay with NCI-H23 lung was 3.21 µM; in the assay with PC-3 prostate, 1.15 µM; with LOX IMVI melanoma, 0.692 µM; in the assay with SN12C renal, 2.37 µM; in the assay on CAKI-1 renal it was 1.6 µM; in the assay on T-47D breast, 0.585 µM. The GI50 with COLO 205 colon was 0.566 µM; with NCI/ADR-RES ovarian, 0.49 µM; in the assay on A549 NSCLC, 1.55 µM; with SR leukemia, 0.497 µM. In addition, the TGI with NCI-H23 lung is over 100 µM; with PC-3 prostate, 31.6 µM; with LOX IMVI melanoma, over 100 µM; in the assay with SN12C renal, over 100 µM; in the assay with CAKI-1 renal, over 100 µM; in the assay with T-47D breast it was over 100 µM. Besides, the TGI with COLO 205 colon was 7.39 µM; in the assay with NCI/ADR-RES ovarian, over 100 µM; in the assay with A549 NSCLC it was over 100 µM; with SR leukemia it was over 100 µM.
On to `COc1ccc(OC)c(Nc2nc3nonc3nc2Nc2cccc(Br)c2)c1`, for which the GI50 was 0.41 µM in the assay with NCI-H23 lung; 0.454 µM in the assay with PC-3 prostate; 1.93 µM with LOX IMVI melanoma; 0.405 µM with SN12C renal; 0.811 µM in the assay with CAKI-1 renal; 0.285 µM in the assay with T-47D breast. Moreover, the GI50 is 0.853 µM in the assay with COLO 205 colon, 0.541 µM in the assay with NCI/ADR-RES ovarian, 0.713 µM with A549 NSCLC and 2.36 µM with SR leukemia. The TGI in the assay with NCI-H23 lung is 5.49 µM; with PC-3 prostate, over 100 µM; with LOX IMVI melanoma, over 100 µM; in the assay with SN12C renal it was 7.07 µM; with CAKI-1 renal it was 15.2 µM; with T-47D breast, 2.17 µM. Besides, the TGI is 2.73 µM with COLO 205 colon, 13.9 µM with NCI/ADR-RES ovarian, over 100 µM with A549 NSCLC and 10.9 µM with SR leukemia.
In the case of `COc1ccc2c(c1)C(=Nc1ccc(F)c(Cl)c1)c1c-2c(Nc2ccc(F)c(Cl)c2)nc2ccccc12`, the GI50 in the assay on NCI-H23 lung is 19.9 µM; in the assay with PC-3 prostate it was over 94.6 µM; in the assay on LOX IMVI melanoma, 51.8 µM; with SN12C renal, 33.8 µM; in the assay with CAKI-1 renal, over 65.8 µM; in the assay with T-47D breast it was over 100 µM. Moreover, the GI50 with COLO 205 colon is over 100 µM; in the assay on NCI/ADR-RES ovarian, 29.6 µM; with A549 NSCLC, over 74 µM; in the assay on SR leukemia, 0.0122 µM. The TGI with NCI-H23 lung is 58 µM; in the assay on PC-3 prostate, over 100 µM; with LOX IMVI melanoma it was over 100 µM; in the assay with SN12C renal, over 67 µM; in the assay on CAKI-1 renal it was over 100 µM; in the assay with T-47D breast it was over 100 µM. The TGI is over 100 µM in the assay with COLO 205 colon, over 72.9 µM in the assay with NCI/ADR-RES ovarian, over 100 µM in the assay with A549 NSCLC and 0.0862 µM with SR leukemia.
As for `Oc1ccc2c(=S)cc(-c3ccc(Br)cc3)oc2c1O`, the GI50 in the assay on NCI-H23 lung was 1.52 µM; in the assay on PC-3 prostate, 2.92 µM; in the assay on LOX IMVI melanoma, 1.18 µM; with SN12C renal, 2.61 µM; with CAKI-1 renal it was 2.65 µM; with T-47D breast, 1.27 µM. Moreover, the GI50 with COLO 205 colon is 10.7 µM; with NCI/ADR-RES ovarian, 1.43 µM; with A549 NSCLC it was 3.26 µM; with SR leukemia, 2.54 µM. Moreover, the TGI was determined as 6.38 µM with NCI-H23 lung; 17.1 µM with PC-3 prostate; 3.87 µM in the assay with LOX IMVI melanoma; 12.3 µM with SN12C renal; 15.5 µM in the assay on CAKI-1 renal; 5.15 µM with T-47D breast. Also, the TGI in the assay on COLO 205 colon came to 24.5 µM; in the assay with NCI/ADR-RES ovarian it was 6.05 µM; with SR leukemia, 38.1 µM.
